Laboratory results as given in ChEMBL document CHEMBL4431321, “Profiling of Flavonol Derivatives for the Development of Antitrypanosomatidic Drugs” (J Med Chem, 2016).
Values belong to the compound of their own block, whether it stands above or below them. Calls of active or inactive are those of the source. No cut-off for these calls is given here.

Experiments:
A549 = assay: Cytotoxicity against human A549 cells at 100 uM after 48 hrs by cell titer glo assay; format: cell-based; conditions: a549, 48 h
[1] = Cytotoxicity against human THP1 cells after 72 hrs by MTT assay; format: cell-based; conditions: THP-1 cells; for MNTC at 72 h: read-out: NOAEL
Leishmania infantum [2] = assay: Antiparasitic activity against Leishmania infantum MOM/MA67ITMAP263 amastigotes infected in human THP1 cells at 10 uM after 72 hrs by steady-glo luminescence assay; format: functional
Trypanosoma brucei [3] = assay: Inhibition of Trypanosoma brucei PTR1 at 50 uM using H2B as substrate incubated for 10 mins followed by addition of NADPH measured for 10 to 50 mins
WI-38 = assay: Cytotoxicity against human WI38 cells at 100 uM after 48 hrs by cell titer glo assay; format: cell-based; conditions: wi-38, 48 h
786-0 = assay: Mitochondrial toxicity in human 786-O cells incubated for 6 hrs by mitotracker red staining based-uptake method; format: cell-based; conditions: 786-0, 6 h
in vitro = conditions: human, THP-1 cells
Description: Selectivity index, ratio of CC50 for human THP1 cells to EC50 for Trypanosoma brucei brucei Lister 427 bloodstream forms

Cytochrome P450 1A2 [4] = target: T1, Cytochrome P450 1A2 (Homo sapiens, UniProt P05177); assay: (§1) Inhibition of human microsomal CYP1A2 expressed in baculovirus infected BTI-TN-5B1-4 cells at 10 uM incubated for 30 mins by luciferase assay; format: ADME; conditions: bti-tn-5b1-4, 0.5 h, 10 µM
T1 sequence (P05177 whole entry): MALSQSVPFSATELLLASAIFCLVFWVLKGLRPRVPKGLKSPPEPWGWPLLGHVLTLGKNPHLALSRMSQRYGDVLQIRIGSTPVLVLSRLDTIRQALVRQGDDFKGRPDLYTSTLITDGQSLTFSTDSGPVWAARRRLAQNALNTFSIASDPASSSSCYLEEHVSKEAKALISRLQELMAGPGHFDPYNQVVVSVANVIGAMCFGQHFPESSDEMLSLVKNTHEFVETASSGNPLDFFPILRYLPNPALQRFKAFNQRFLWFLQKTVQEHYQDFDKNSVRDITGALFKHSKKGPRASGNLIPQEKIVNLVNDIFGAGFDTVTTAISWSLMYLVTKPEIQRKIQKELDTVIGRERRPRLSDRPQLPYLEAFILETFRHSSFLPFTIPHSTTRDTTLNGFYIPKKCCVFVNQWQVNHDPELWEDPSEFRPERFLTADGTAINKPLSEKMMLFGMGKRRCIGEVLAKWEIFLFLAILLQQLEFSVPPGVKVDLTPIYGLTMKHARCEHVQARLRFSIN

[5] = target: Thymidylate synthase (Homo sapiens) (UniProt P04818); assay: Inhibition of human thymidylate synthase at 50 uM using folic aid as substrate by spectrophotometric analysis
Thymidylate synthase (Homo sapiens), sequence (P04818 2-313 limits assumed): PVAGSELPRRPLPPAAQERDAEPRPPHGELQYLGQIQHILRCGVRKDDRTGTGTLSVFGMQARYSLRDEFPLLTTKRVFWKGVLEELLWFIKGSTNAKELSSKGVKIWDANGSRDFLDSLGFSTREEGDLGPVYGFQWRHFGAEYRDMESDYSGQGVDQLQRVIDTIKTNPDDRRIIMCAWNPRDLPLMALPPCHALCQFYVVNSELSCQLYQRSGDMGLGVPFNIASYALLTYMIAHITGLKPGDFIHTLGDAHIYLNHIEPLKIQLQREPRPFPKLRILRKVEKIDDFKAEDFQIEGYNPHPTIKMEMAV

[6] = target: Aurora kinase B (Homo sapiens) (UniProt Q96GD4); assay: Inhibition of recombinant full-length human aurora B kinase expressed in baculovirus system using MBP as substrate at 10 uM incubated for 45 mins by ADP-glo kinase assay
Aurora kinase B (Homo sapiens), sequence (Q96GD4 whole entry): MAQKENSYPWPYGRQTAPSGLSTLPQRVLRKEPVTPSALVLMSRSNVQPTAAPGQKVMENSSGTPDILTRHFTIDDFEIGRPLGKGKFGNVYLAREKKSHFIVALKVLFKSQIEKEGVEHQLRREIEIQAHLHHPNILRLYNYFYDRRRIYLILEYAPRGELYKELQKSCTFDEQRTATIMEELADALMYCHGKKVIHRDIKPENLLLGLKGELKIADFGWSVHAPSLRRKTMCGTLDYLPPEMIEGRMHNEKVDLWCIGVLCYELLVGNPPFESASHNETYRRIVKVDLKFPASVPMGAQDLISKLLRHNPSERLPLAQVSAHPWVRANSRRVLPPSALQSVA

Trypanosoma brucei [7] = assay: Inhibition of Trypanosoma brucei DHFR at 50 uM using folic aid as substrate by spectrophotometric analysis
Leishmania mexicana [8] = assay: Inhibition of Leishmania mexicana DHFR at 50 uM using folic aid as substrate by spectrophotometric analysis
[9] = target: T2, Dihydrofolate reductase (Homo sapiens) (UniProt P00374); assay: Inhibition of human DHFR at 50 uM using folic aid as substrate by spectrophotometric analysis
T2 sequence (whole entry): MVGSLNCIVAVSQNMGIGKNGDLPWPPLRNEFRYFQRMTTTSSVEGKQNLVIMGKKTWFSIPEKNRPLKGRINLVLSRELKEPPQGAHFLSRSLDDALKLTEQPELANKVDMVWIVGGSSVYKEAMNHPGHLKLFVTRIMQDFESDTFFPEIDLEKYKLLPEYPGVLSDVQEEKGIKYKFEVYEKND

[10] = Half life BALB/c mouse blood at 1 mg/kg, iv administered as single dose by HPLC analysis; format: ADME, organism-based
[11] = Drug uptake in BALB/c mouse blood at 1 mg/kg, iv administered as single dose after 30 mins by HPLC analysis; format: ADME, organism-based; conditions: in vivo, 0.5 h
[12] = system: Trypanosoma brucei brucei; assay: Antitrypanosomal activity against Trypanosoma brucei brucei Lister 427 bloodstream forms after 72 hrs by resazurin-based assay; format: functional, organism-based; conditions: Lister 427, 72 h
Cytochrome P450 2D6 = Cytochrome P450 2D6 (Homo sapiens, UniProt P10635); assay: Inhibition of human microsomal CYP2D6 expressed in baculovirus infected BTI-TN-5B1-4 cells incubated for 30 mins by luciferase assay; format: ADME
Cytochrome P450 2D6, sequence (P10635 whole entry): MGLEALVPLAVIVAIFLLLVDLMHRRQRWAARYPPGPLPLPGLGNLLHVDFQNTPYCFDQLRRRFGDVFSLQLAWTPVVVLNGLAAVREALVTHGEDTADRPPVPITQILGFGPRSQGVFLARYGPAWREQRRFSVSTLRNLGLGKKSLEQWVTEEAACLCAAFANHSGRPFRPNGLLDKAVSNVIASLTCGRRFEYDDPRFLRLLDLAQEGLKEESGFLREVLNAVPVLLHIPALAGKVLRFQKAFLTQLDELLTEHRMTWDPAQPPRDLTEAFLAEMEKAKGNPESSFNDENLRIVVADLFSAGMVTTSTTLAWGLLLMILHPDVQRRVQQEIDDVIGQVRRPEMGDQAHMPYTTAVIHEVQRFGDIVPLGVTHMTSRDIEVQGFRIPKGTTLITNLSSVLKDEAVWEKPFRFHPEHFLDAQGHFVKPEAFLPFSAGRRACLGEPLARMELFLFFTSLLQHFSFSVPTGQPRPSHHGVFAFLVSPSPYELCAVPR

Cytochrome P450 1A2 [13] = target: T1, Cytochrome P450 1A2; assay: Inhibition of human microsomal CYP1A2 expressed in baculovirus infected BTI-TN-5B1-4 cells incubated for 30 mins by luciferase assay; format: ADME
[14] = system: Trypanosoma brucei brucei; assay: Antitrypanosomal activity against Trypanosoma brucei brucei Lister 427 bloodstream forms at 10 uM after 72 hrs by resazurin-based assay; format: functional, organism-based
Cytochrome P450 2C19 = Cytochrome P450 2C19 (Homo sapiens, UniProt P33261); assay: Inhibition of human microsomal CYP2C19 expressed in baculovirus infected BTI-TN-5B1-4 cells incubated for 30 mins by luciferase assay; format: ADME
Cytochrome P450 2C19, sequence (P33261 whole entry): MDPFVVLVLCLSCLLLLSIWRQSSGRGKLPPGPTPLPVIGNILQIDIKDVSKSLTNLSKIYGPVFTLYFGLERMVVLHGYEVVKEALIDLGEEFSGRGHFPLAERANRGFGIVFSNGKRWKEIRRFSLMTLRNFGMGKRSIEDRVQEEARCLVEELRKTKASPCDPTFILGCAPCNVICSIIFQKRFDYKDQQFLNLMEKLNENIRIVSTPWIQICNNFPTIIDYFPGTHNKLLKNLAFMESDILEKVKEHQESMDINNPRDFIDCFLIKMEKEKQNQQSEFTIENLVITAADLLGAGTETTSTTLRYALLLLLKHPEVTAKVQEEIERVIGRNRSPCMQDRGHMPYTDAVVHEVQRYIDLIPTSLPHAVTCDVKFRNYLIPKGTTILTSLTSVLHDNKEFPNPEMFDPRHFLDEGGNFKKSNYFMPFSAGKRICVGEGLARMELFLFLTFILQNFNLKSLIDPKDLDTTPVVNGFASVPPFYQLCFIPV

[15] = system: Trypanosoma brucei brucei; assay: Antitrypanosomal activity against Trypanosoma brucei brucei Lister 427 bloodstream forms compound treated with cyclodextrins after 72 hrs by resazurin-based assay; format: functional, organism-based; conditions: Lister 427, 72 h
[16] = (§2) Inhibition of Trypanosoma brucei PTR1 using H2B as substrate incubated for 10 mins followed by addition of NADPH measured for 10 to 50 mins
Cytochrome P450 3A4 = Cytochrome P450 3A4 (Homo sapiens, UniProt P08684); assay: Inhibition of human microsomal CYP3A4 expressed in baculovirus infected BTI-TN-5B1-4 cells incubated for 30 mins by luciferase assay; format: ADME
Cytochrome P450 3A4, sequence (P08684 whole entry): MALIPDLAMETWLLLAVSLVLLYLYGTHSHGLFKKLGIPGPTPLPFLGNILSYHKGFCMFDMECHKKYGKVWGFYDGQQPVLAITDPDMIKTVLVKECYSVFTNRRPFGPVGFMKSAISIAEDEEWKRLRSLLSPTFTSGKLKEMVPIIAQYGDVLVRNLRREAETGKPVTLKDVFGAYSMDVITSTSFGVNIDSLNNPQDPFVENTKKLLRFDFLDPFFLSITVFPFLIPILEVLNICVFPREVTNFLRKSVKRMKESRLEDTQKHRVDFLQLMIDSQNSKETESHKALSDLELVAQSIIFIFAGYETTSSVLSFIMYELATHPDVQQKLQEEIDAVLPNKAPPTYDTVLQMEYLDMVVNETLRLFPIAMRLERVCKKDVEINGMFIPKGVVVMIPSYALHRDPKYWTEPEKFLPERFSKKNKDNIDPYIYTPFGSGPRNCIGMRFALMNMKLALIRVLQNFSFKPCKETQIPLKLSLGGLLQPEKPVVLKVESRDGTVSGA

[17] = Cytotoxicity against human THP1 cells compound treated through encapsulation in PLGA nanoparticles after 72 hrs by MTT assay; format: cell-based; conditions: THP-1 cells, read-out: NOAEL
Cytochrome P450 2C9 = Cytochrome P450 2C9 (Homo sapiens, UniProt P11712); assay: Inhibition of human microsomal CYP2C9 expressed in baculovirus infected BTI-TN-5B1-4 cells incubated for 30 mins by luciferase assay; format: ADME
Cytochrome P450 2C9, sequence (P11712 whole entry): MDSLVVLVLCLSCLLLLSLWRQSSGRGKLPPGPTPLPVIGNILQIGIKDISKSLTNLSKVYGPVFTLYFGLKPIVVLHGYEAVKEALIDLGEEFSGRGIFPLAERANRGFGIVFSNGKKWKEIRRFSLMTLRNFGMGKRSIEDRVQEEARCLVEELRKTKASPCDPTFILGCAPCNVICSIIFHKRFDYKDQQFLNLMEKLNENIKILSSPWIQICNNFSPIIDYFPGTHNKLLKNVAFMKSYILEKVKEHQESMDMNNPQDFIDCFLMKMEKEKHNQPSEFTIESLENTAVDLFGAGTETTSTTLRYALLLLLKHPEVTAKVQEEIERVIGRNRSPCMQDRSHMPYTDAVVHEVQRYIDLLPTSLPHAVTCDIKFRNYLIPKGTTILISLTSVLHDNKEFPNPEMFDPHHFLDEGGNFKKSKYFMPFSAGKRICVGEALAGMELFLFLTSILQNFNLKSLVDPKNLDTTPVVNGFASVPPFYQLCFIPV

[18] = Solubility of compound in PBS incubated for 18 hrs by UV-visible spectroscopic analysis; format: physicochemical; conditions: buffer
Leishmania mexicana [19] = assay: Inhibition of Leishmania mexicana PTR1 at 50 uM using H2B as substrate incubated for 10 mins followed by addition of NADPH measured for 10 to 50 mins
[20] = target: Voltage-gated inwardly rectifying potassium channel KCNH2 (Homo sapiens, UniProt Q12809); assay: Inhibition of human ERG in membranes incubated for 2 hrs by fluorescence polarization assay
Voltage-gated inwardly rectifying potassium channel KCNH2, sequence (Q12809 whole entry): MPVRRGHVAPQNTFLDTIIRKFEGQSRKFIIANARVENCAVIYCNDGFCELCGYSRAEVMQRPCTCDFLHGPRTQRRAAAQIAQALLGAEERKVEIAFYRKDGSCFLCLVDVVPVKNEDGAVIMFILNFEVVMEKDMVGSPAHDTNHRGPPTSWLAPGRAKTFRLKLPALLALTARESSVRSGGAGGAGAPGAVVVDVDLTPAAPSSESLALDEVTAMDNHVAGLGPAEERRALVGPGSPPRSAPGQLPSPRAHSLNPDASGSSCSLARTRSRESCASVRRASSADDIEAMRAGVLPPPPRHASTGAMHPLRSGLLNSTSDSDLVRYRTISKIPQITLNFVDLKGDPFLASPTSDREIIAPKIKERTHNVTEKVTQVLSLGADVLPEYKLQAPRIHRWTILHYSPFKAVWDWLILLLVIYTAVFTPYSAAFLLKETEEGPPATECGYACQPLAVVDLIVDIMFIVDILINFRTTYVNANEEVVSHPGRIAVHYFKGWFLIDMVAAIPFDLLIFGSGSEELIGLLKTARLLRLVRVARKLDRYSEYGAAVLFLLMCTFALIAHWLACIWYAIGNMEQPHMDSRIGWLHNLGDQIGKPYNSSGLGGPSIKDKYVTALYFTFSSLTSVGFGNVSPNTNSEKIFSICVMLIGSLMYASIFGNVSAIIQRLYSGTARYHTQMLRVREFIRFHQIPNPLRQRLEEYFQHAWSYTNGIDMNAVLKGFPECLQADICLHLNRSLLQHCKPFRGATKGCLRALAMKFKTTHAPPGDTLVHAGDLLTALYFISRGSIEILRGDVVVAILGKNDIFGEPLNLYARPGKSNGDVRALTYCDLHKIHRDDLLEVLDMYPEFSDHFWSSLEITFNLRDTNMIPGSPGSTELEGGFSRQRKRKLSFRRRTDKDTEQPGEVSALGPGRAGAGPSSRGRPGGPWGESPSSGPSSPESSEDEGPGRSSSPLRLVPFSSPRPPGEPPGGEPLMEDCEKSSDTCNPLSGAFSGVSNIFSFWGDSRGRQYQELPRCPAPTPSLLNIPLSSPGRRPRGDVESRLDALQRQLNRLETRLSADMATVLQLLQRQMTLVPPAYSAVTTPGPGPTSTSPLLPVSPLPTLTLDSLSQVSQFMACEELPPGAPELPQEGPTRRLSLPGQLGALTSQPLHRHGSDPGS

[21] = Drug uptake in BALB/c mouse plasma at 1 mg/kg, iv administered as single dose through encapsulation in PLGA nanoparticles by HPLC analysis; format: ADME, organism-based; conditions: in vivo
[22] = system: Trypanosoma brucei brucei; assay: Antitrypanosomal activity against Trypanosoma brucei brucei Lister 427 bloodstream forms assessed as synergy coefficient at 1.25 to 5 uM after 72 hrs in presence of MTX by resazurin-based assay; format: functional
[23] = system: Trypanosoma brucei brucei; assay: Antitrypanosomal activity against Trypanosoma brucei brucei Lister 427 bloodstream forms compound treated through encapsulation in PLGA nanoparticles after 72 hrs by resazurin-based assay; format: functional, organism-based; conditions: Lister 427, 72 h
[24] = Drug uptake in BALB/c mouse plasma at 1 mg/kg, po administered as single dose through encapsulation in PLGA nanoparticles by HPLC analysis; format: ADME, organism-based; conditions: in vivo
Dihydrofolate reductase = Dihydrofolate reductase (Homo sapiens, UniProt P00374); assay: Inhibition of human DHFR using folic aid as substrate by spectrophotometric analysis
[25] = Cytotoxicity against human THP1 cells compound treated with cyclodextrins after 72 hrs by MTT assay; format: cell-based; conditions: THP-1 cells, read-out: NOAEL
[26] = Drug uptake in NMRI mouse plasma at 4 mg/kg, po administered with cyclodextrins by HPLC analysis; format: ADME, organism-based; conditions: in vivo
Leishmania infantum [27] = assay: Antiparasitic activity against Leishmania infantum MOM/MA67ITMAP263 amastigotes infected in human THP1 cell after 72 hrs by steady-glo luminescence assay; format: functional, organism-based; conditions: MOM/MA67ITMAP263, THP-1, 72 h
[28] = system: Trypanosoma brucei brucei; assay: Antitrypanosomal activity against Trypanosoma brucei brucei Lister 427 bloodstream forms assessed as synergy coefficient at 2.5 to 5 uM after 72 hrs in presence of MTX by resazurin-based assay; format: functional
Trypanosoma cruzi = assay: Antitrypanosomal activity against Trypanosoma cruzi Y trypomastigotes infected in human HG39 cells after 48 hrs by RT-PCR assay
Trypanosoma brucei [29] = assay: as §2
THP-1 = assay: Cytotoxicity against human THP1 cells at 12.5 to 50 uM after in presence of MTX by MTT assay; format: cell-based; conditions: thp-1, 50 µM
[30] = system: Trypanosoma brucei brucei; assay: Antitrypanosomal activity against Trypanosoma brucei brucei Lister 427 bloodstream forms assessed as maximum synergy coefficient at 1.25 after 72 hrs in presence of MTX by resazurin-based assay; format: functional
CYP1A2 = CYP1A2 (Homo sapiens, UniProt P05177); assay: as §1; format: ADME

Compound: COc1ccc2c(=O)c(O)c(-c3cc(OC)c(OC)c(OC)c3)oc2c1
Activity (A549): Non-Toxic
MNTC at 72 h [1]: 20 µM
Activity (Leishmania infantum [2]): 35%
inhibition (Trypanosoma brucei [3]): inactive
Activity (WI-38): Non-Toxic
Activity (786-0): Non-Toxic
selectivity ratio (in vitro): 17
inhibition (INH) (Cytochrome P450 1A2 [4]): Not Active

Compound: O=c1c(O)c(-c2ccc(O)c(O)c2)oc2cc(O)ccc12 [FISETIN]
inhibition [5]: inactive
inhibition [6]: Active
Activity (A549): Non-Toxic
inhibition (Trypanosoma brucei [7]): < 25%
inhibition (Trypanosoma brucei [3]): 53%
Activity (WI-38): Non-Toxic
Activity (786-0): Non-Toxic
inhibition (Leishmania mexicana [8]): < 25%
inhibition [9]: < 30%

Compound: O=c1c(O)c(-c2cccc(O)c2)oc2ccc(O)cc12
half-life [10]: 7.6 min
Drug uptake [11]: Not Active
EC50 [12]: 7.56 µM
inhibition [5]: inactive
IC50 (Cytochrome P450 2D6): > 10 µM
IC50 (Cytochrome P450 1A2 [13]): 6.1 µM
Activity [14]: Active
IC50 (Cytochrome P450 2C19): > 10 µM
Activity (A549): Non-Toxic
CC50 at 72 h [1]: 53 µM
inhibition (Trypanosoma brucei [7]): 42 to 43%
EC50 [15]: 3.27 µM
inhibition (Trypanosoma brucei [3]): 96%
IC50 [16]: 4.3 µM
Activity (WI-38): Non-Toxic
IC50 (Cytochrome P450 3A4): > 10 µM
Activity (786-0): Non-Toxic
MNTC at 72 h [17]: > 100 µM
IC50 (Cytochrome P450 2C9): > 10 µM
solubility [18]: Soluble
inhibition (Leishmania mexicana [19]): 86%
IC50 [20]: 99.3 µM
Drug uptake [21]: Not Active
inhibition (Leishmania mexicana [8]): 42 to 43%
selectivity ratio (in vitro): 7
CI [22]: >1
EC50 [23]: 5.7 µM
Drug uptake [24]: Not Active
inhibition (INH) (Cytochrome P450 1A2 [4]): Not Active
IC50 (Dihydrofolate reductase): 50 µM
MNTC at 72 h [25]: > 100 µM
Drug uptake [26]: Not Active

Compound: C[C@@H]1O[C@@H](OC[C@H]2O[C@@H](Oc3c(-c4ccc(O)c(O)c4)oc4cc(O)cc(O)c4c3=O)[C@H](O)[C@@H](O)[C@@H]2O)[C@H](O)[C@H](O)[C@H]1O
IC50 [12]: < 30 µM
inhibition (Trypanosoma brucei [29]): inactive

Compound: COc1ccc(-c2oc3ccc(OC)cc3c(=O)c2O)cc1
Activity (THP-1): Non-Toxic
Activity [14]: Active
Activity (A549): Non-Toxic
MNTC at 72 h [1]: 20 µM
Activity (WI-38): Non-Toxic
Activity (786-0): Non-Toxic
selectivity ratio (in vitro): 1
CI [30]: 3.1
inhibition at 0.5 h, 10 µM (CYP1A2): 72%
CI [28]: >1.5

The next lines start with results.

IC50 (Leishmania infantum [27]): 2.65 µM
Compound: CCCCCCCCCCCCCCCCOP(=O)([O-])OCC[N+](C)(C)C [MILTEFOSINE]

EC50 [12]: 4.29 µM
inhibition [5]: inactive
inhibition (Trypanosoma brucei [7]): < 25%
inhibition (Trypanosoma brucei [3]): 33%
inhibition (Leishmania mexicana [8]): < 25%
inhibition [9]: < 30%
inhibition (INH) (Cytochrome P450 1A2 [4]): Not Active
Compound: O=c1c(O)c(-c2ccc(O)cc2)oc2cc(O)ccc12 [RESOKAEMPFEROL]
Activity [14]: Active
Activity (A549): Non-Toxic
MNTC at 72 h [1]: 20 µM
Activity (WI-38): Non-Toxic
Activity (786-0): Non-Toxic
selectivity ratio (in vitro): 4
CI [22]: >1.5
CI [28]: >1.5

IC50 (Trypanosoma cruzi): 2.2 µM
Compound: CC1CS(=O)(=O)CCN1/N=C/c1ccc([N+](=O)[O-])o1 (stereo unspecified) [NIFURTIMOX]

EC50 [12]: 18 µM
inhibition [5]: inactive
inhibition [6]: Active
inhibition (Trypanosoma brucei [7]): < 25%
inhibition (Trypanosoma brucei [3]): 85%
inhibition (Leishmania mexicana [8]): < 25%
inhibition [9]: < 30%
Compound: O=c1c(O)c(-c2cc(O)c(O)c(O)c2)oc2cc(O)ccc12 [ROBINETIN]
Activity (A549): Non-Toxic
MNTC at 72 h [1]: 100 µM
Activity (Leishmania infantum [2]): 10%
Activity (WI-38): Non-Toxic
Activity (786-0): Non-Toxic
selectivity ratio (in vitro): 5
